Reference: patent publication US20130324412A1, “N-ALKOXYAMIDES OF 6-(SUBSTITUTED PHENYL)-4-AMINOPICOLINATES AND 2-(SUBSTITUTED PHENYL)-6-AMINO-4-PYRIMIDINECARBOXYLATES AND THEIR USE AS SELECTIVE HERBICIDES FOR CROPS” (DOW AGROSCIENCES LLC, priority 2009, published 2013)

How the values were obtained:
Assay type in all cases: in vivo
corn (Zea mays) = experiment: Postemergence herbicidal activity in corn, crop; details: visual rating after 21 d, probit analysis, dose to kill or control 20 percent
Procedure: (§1) Seeds of corn and the desired weed species were planted in Sun Gro MetroMix 360 planting mixture, which typically has a pH of 6.0 to 6.8 and an organic matter content of about 30 percent, in plastic pots with a surface area of 95 cm^2. When required to ensure good germination and healthy plants, a fungicide treatment and/or other chemical or physical treatment was applied. The plants were grown for 7-21 d in a greenhouse with an approximate 15-h photoperiod which was maintained at about 23-29° C. during the day and 22-28° C. during the night. Nutrients and water were added on a regular basis and supplemental lighting was provided with overhead metal halide 1000-Watt lamps as necessary. The corn plants were utilized for testing when they reached the second true leaf stage. The weed species were utilized at the first or second true leaf stage.
(§2) A weighed amount, determined by the highest rate to be tested, of each test compound was dissolved in 4 mL of a 97:3 v/v mixture of acetone and DMSO to obtain concentrated stock solutions. […] The concentrated stock solutions obtained were diluted with 20 mL of an aqueous mixture containing acetone, water, isopropyl alcohol, DMSO, Atplus 411F crop oil concentrate, and Triton X-155 surfactant in a 48.5:39:10:1.5:1.0:0.02 v/v ratio to obtain spray solutions containing the highest application rates. […]
(§3) The treated plants and control plants were placed in a greenhouse as described above and watered by sub-irrigation to prevent wash-off of the test compounds. After 21 d, the condition of the test plants as compared with that of the untreated plants was determined visually and scored on a scale of 0 to 100 percent where 0 corresponds to no injury and 100 corresponds to complete kill. […]

[1] = tested on: sicklepod (Casia obtusifolia); experiment: Postemergence herbicidal activity in corn, sicklepod; details: corn test, visual rating after 21 d, probit analysis, dose to kill or control 80 percent
Procedure: as §1, §2, §3

[2] = tested on: pigweed, redroot (Amaranthus retroflexus); experiment: Postemergence herbicidal activity in corn, redroot pigweed; details: corn test, visual rating after 21 d, probit analysis, dose to kill or control 80 percent
Procedure: as §1, §2, §3

[3] = tested on: winter oilseed rape (canola) (Brassica napus); experiment: Postemergence herbicidal activity in oilseed rape (canola), crop; set-up: unit not given here; details: visual rating after 21 d, probit analysis, dose to kill or control 20 percent
Procedure: as §1, with “oilseed rape (canola)” for “corn”, “MetroMix®” for “MetroMix”, “15-28” for “7-21”, “third or fourth” for “second”, “fourth” for “first or second”
(§4) A weighed amount, determined by the highest rate to be tested, of each test compound was dissolved in 4 mL of a 97:3 v/v mixture of acetone and DMSO to obtain concentrated stock solutions. […] The concentrated stock solutions obtained were diluted with 20 mL of an aqueous mixture containing acetone, water and Agri-Dex crop oil concentrate, in a 16.7:82.1:1.25 v/v ratio to obtain spray solutions containing the highest application rates. Additional application rates were obtained by serial dilution of 12 mL of the high rate solution into a solution containing 2 mL of 97:3 v/v mixture of acetone and DMSO and 10 mL of an aqueous mixture containing acetone, water and Agri-Dex crop oil concentrate, in a 16.7:82.1:1.25 v/v ratio to obtain ½×, ¼×, ⅛× and 1/16× rates of the high rate. Compound requirements are based upon a 12 mL application volume at a rate of 187 L/ha. Formulated compounds were applied to the plant material with an overhead Mandel track sprayer equipped with 8002E nozzles calibrated to deliver 187 L/ha over an application area of 0.503 m^2 at a spray height of 18 inches (43 cm) above the average plant canopy height. Control plants were sprayed in the same manner with the solvent blank.
(§5) The treated plants and control plants were placed in a greenhouse as described above and watered by sub-irrigation to prevent wash-off of the test compounds. After 21 d, the condition of the test plants as compared with that of the untreated plants was determined visually and scored on a scale of 0 to 100 percent where 0 corresponds to no injury and 100 corresponds to complete kill.
(§6) By applying the well-accepted probit analysis as described by J. Berkson in Journal of the American Statistical Society 1953, 48, 565, and by D. Finney in “Probit Analysis” Cambridge University Press (1952), the above data can be used to calculate GR20 and GR80 values, which are defined as growth reduction factors that correspond to the effective dose of herbicide required to kill or control 20 percent or 80 percent, respectively, of a target plant.

[4] = tested on: lambsquarters (Chenopodium album); experiment: Postemergence herbicidal activity in oilseed rape (canola), lambsquarters; set-up: unit: g ai/ha; details: oilseed rape (canola) test, visual rating after 21 d, probit analysis, dose to kill or control 80 percent
Procedure: as §1, with “oilseed rape (canola)” for “corn”, “MetroMix®” for “MetroMix”, “15-28” for “7-21”, “third or fourth” for “second”, “fourth” for “first or second”
as §4, §5, §6

[5] = tested on: purple deadnettle (Lamium purpureum); experiment: Postemergence herbicidal activity in oilseed rape (canola), purple deadnettle; set-up: unit not given here; details: oilseed rape (canola) test, visual rating after 21 d, probit analysis, dose to kill or control 80 percent
Procedure: as §1, with “oilseed rape (canola)” for “corn”, “MetroMix®” for “MetroMix”, “15-28” for “7-21”, “third or fourth” for “second”, “fourth” for “first or second”
as §4, §5, §6

Compound | ZEAMX GR20 (corn (Zea mays)) [g ai/ha] | CASOB GR80 [1] [g ai/ha] | AMARE GR80 [2] [g ai/ha] | BRSNW GR20 [3] | CHEAL GR80 [4] | LAMPU GR80 [5]
COc1c(Cl)ccc(-c2cc(N)c(Cl)c(C(=O)NOCC(C)C)n2)c1F [Compound 1, 4-amino-3-chloro-6-(4-chloro-2-fluoro-3-methoxyphenyl)-N-(2-methylpropoxy)picolinamide] | >35 | 8.75 | 14 | >70 | <8.75 | <4.38
CONC(=O)c1nc(-c2ccc(Cl)c(OC)c2F)cc(N)c1Cl [Compound 2, 4-Amino-3-chloro-6-(4-chloro-2-fluoro-3-methoxyphenyl)-N-methoxypicolinamide] | >35 | 17 | <4 | >70 | 22 | <4.38
